Test results: ChEMBL document CHEMBL5108022, “Structure-Activity relationship study of benzothiophene oxobutanoic acid analogues leading to novel stimulator of interferon gene (STING) agonists” (Eur J Med Chem, 2022)
Active and inactive are the calls of the source. The rule behind the calls is not given here.

Columns and labels:
CT26 [1] = test: Antitumor activity against mouse CT26 cells implanted in immunocompetent Balb/c mouse assessed as suppression of tumor growth at 250 ug, IT administered on day 1,4 and 7 and measured twice per week; assay type: functional, cell-based; details: dose 250.0 µg, time 7.0 day
[2] = biological target: T1, Stimulator of interferon genes protein (Homo sapiens, UniProt Q86WV6); test: Agonist activity at STING in human THP1-Blue ISG cells assessed as fold change in ISG activation at 10 uM incubated for 24 hrs by Quanti-Luc or Quanti-blue reagent based luminescence assay; assay type: cell-based; details: filed as agonist
Target sequence in this assay (Q86WV6 whole entry): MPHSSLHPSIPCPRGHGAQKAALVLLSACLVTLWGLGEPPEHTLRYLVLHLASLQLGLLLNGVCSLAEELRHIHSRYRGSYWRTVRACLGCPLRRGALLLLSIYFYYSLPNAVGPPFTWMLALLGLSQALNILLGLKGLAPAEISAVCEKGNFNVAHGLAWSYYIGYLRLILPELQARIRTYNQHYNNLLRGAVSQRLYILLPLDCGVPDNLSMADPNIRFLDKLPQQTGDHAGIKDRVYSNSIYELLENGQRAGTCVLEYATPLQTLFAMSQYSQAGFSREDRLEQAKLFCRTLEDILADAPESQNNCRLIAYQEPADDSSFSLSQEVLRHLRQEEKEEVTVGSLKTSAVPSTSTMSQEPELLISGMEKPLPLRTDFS

[3] = biological target: T2, Stimulator of interferon genes protein (Mus musculus) (UniProt Q3TBT3); test: Agonist activity at STING in mouse RAW-Lucia ISG cells assessed as fold change in ISG activation at 50 uM incubated for 24 hrs by Quanti-Luc or Quanti-blue reagent based luminescence assay; assay type: cell-based
T2 sequence (whole entry): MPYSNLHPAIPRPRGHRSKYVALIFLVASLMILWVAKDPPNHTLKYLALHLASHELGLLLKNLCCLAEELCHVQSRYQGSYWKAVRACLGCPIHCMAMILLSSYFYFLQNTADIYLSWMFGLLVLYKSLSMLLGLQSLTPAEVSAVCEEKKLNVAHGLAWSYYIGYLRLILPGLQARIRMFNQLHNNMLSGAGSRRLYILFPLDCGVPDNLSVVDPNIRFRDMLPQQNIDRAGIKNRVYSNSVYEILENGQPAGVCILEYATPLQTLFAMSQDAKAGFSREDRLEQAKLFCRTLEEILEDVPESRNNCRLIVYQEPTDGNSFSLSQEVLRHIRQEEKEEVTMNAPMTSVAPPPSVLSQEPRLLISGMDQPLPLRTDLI

[4] = biological target: T1, Stimulator of interferon genes protein; test: Agonist activity at STING in human THP1-Dual cells assessed as ISG pathway activation incubated for 24 hrs by Quanti-Luc or Quanti-blue reagent based luminescence assay; assay type: cell-based
Target sequence in this assay (Q86WV6 whole entry): as the sequence (Q86WV6 whole entry) above

[5] = biological target: T1, Stimulator of interferon genes protein; test: Binding affinity to STING HAQ variant (unknown origin)
Target sequence in this assay (Q86WV6 whole entry, looked up, change not shown): as the sequence (Q86WV6 whole entry) above

[6] = biological target: T1, Stimulator of interferon genes protein; test: Displacement of cGAMP from human full length STING HAQ variant expressed in insect microsomes incubated for 16 hrs by TopCount scintillation counting method; parameters: species or system Microsome
Target sequence in this assay (Q86WV6 whole entry, looked up, change not shown): as the sequence (Q86WV6 whole entry) above

[7] = biological target: T1, Stimulator of interferon genes protein; test: Agonist activity at STING in human THP-1 cells assessed as increase in IFN-beta secretion incubated for 5 hrs by AlphaLISA assay; assay type: cell-based
Target sequence in this assay (Q86WV6 whole entry): as the sequence (Q86WV6 whole entry) above

B16-F10 [8] = test: Antitumor activity against mouse B16-F10 cells implanted in immunocompetent C57BL/6 mouse assessed as inhibition of tumor growth at 500 ug, IT administered on day 1,4 and 7 and measured twice per week for 8 days; assay type: functional, cell-based; details: dose 500.0 µg, time 8.0 day
[9] = biological target: T1, Stimulator of interferon genes protein; test: Agonist activity at STING in human THP1-Dual cells assessed as increase in TBK1 phosphorylation at 3.3 to 30 uM incubated for 2 to 4 hrs by Western blot analysis; assay type: cell-based; details: filed as agonist, dose 3.3-30 µM, time 2-4 hrs
Target sequence in this assay (Q86WV6 whole entry): as the sequence (Q86WV6 whole entry) above

[10] = biological target: T1, Stimulator of interferon genes protein; test: Agonist activity at STING in human THP1-Dual cells assessed as increase in IRF3 phosphorylation at 3.3 to 30 uM incubated for 2 to 4 hrs by Western blot analysis; assay type: cell-based; details: filed as agonist, dose 3.3-30 µM, time 2-4 hrs
Target sequence in this assay (Q86WV6 whole entry): as the sequence (Q86WV6 whole entry) above

[11] = biological target: T1, Stimulator of interferon genes protein; test: Agonist activity at STING in human THP1-Dual cells assessed as increase in IFN-beta mRNA expression at 3.3 to 30 uM incubated for 6 hrs by RT-PCR analysis; assay type: cell-based; details: filed as agonist, dose 3.3-30 µM
Target sequence in this assay (Q86WV6 whole entry): as the sequence (Q86WV6 whole entry) above

[12] = biological target: T1, Stimulator of interferon genes protein; test: Agonist activity at STING in human THP1-Dual cells assessed as increase in IP-10 mRNA expression at 3.3 to 30 uM incubated for 6 hrs by RT-PCR analysis; assay type: cell-based; details: filed as agonist, dose 3.3-30 µM
[13] = biological target: T2, Stimulator of interferon genes protein (Mus musculus); test: Agonist activity at STING in mouse RAW-Lucia ISG cells assessed as activation of ISG pathway incubated for 24 hrs by Quanti-Luc or Quanti-blue reagent based luminescence assay; assay type: cell-based; details: filed as agonist, dose 3.12-50 µM, DDE = dose-dependent effect
Homo sapiens = species: Homo sapiens; test: Binding affinity to human STING 293Q variant assessed as thermal stability by measuring rightward shift in fluorescence curve at 50 uM by SYPRO orange dye based differential scanning fluorimetry assay; details: filed as agonist
Mus musculus = species: Mus musculus; test: Binding affinity to mouse STING R231 variant assessed as thermal stability by measuring rightward shift in fluorescence curve at 50 uM by SYPRO orange dye based differential scanning fluorimetry assay; details: filed as agonist
[14] = tested on: Stimulator of interferon genes protein (Homo sapiens), Q86WV6 [UNDEFINED MUTATION]; test: Agonist activity at STING R232 variant in human 293-Dual hSTING-R232 cells assessed as activation of ISG pathway at 3.3 to 30 uM incubated for 48 hrs by Quanti-Luc or Quanti-blue reagent based luminescence assay; assay type: cell-based; details: filed as agonist, dose 3.3-30 µM
Sequence of Stimulator of interferon genes protein (Homo sapiens), Q86WV6 [UNDEFINED MUTATION] (Q86WV6 whole entry, looked up, change not shown): as the sequence (Q86WV6 whole entry) above

[15] = tested on: Stimulator of interferon genes protein (Homo sapiens), Q86WV6 [UNDEFINED MUTATION]; test: Agonist activity at STING H232 variant in human 293-Dual hSTING-H232 cells assessed as activation of ISG pathway at 3.3 to 30 uM incubated for 48 hrs by Quanti-Luc or Quanti-blue reagent based luminescence assay; assay type: cell-based; details: filed as agonist, dose 3.3-30 µM
[16] = Toxicity in C57BL/6 mouse implanted with mouse B16-F10 cells assessed as reduction in body weight at 500 ug, IT administered on day 1,4 and 7 and measured twice per week for 8 days; assay type: cell-based; details: in vivo, other, 192 h, dose 500 µg, time 8 day
[17] = Toxicity in STING-knockout C57BL/6 mouse implanted with mouse B16-F10 cells assessed as reduction in body weight at 500 ug, IT administered on day 1,4 and 7 and measured twice per week for 8 days; assay type: cell-based; details: in vivo, other, 192 h, dose 500 µg, time 8 day
CT26 [18] = test: Antitumor activity against mouse CT26 cells implanted in immunocompetent Balb/c mouse assessed as suppression of tumor growth at 500 ug, IT administered on day 1,4 and 7 and measured twice per week; assay type: functional, cell-based; details: dose 500.0 µg, time 7.0 day
[19] = Toxicity in Balb/c mouse implanted with mouse CT26 cells assessed as reduction in body weight at 500 ug, IT administered on day 1,4 and 7 and measured twice per week; assay type: cell-based; details: in vivo, other, 168 h, dose 500 µg, time 7 day
CT26 [20] = test: Immunological memory derived antitumor activity against mouse CT26 cells implanted in immunocompetent Balb/c mouse assessed as suppression of tumor growth at 500 ug, IT administered on day 1,4 and 7 followed by reinoculation of cells into tumor-free animal after 2 months and measured for 22 days post inoculation; assay type: functional, cell-based; details: dose 500.0 µg, time 22.0 day
B16-F10 [21] = test: Antitumor activity against mouse B16-F10 cells implanted in immunocompetent C57BL/6 mouse assessed as inhibition of tumor growth at 100 mg/kg, po administered via gavage on day 1,4 and 7 and measured twice per week; assay type: functional, organism-based; details: time 7.0 day
[22] = Toxicity in C57BL/6 mouse implanted with mouse B16-F10 cells assessed as reduction in body weight at 100 mg/kg, po administered via gavage on day 1,4 and 7 and measured twice per week; assay type: organism-based; details: in vivo, 168 h, time 7 day
4T1 = test: Antitumor activity against mouse 4T1 cells implanted in Balb/c mouse assessed as inhibition of tumor growth at 100 mg/kg, po administered via gavage on day 1,4 and 7 and measured twice per week; assay type: functional, organism-based; details: time 7.0 day
[23] = Toxicity against Balb/c mouse implanted with mouse 4T1 cells assessed as reduction in body weight at 100 mg/kg, po administered via gavage on day 1,4 and 7 and measured twice per week for 22 days; assay type: organism-based; details: in vivo, 528 h, time 22 day
[24] = Toxicity in C57BL/6 mouse implanted with mouse B16-F10 cells assessed as reduction in body weight at 50 ug, IT administered on day 1,4 and 7 and measured twice per week for 8 days; assay type: cell-based; details: in vivo, other, 192 h, dose 50 µg, time 8 day
[25] = Toxicity in STING-knockout C57BL/6 mouse implanted with mouse B16-F10 cells assessed as reduction in body weight at 50 ug, IT administered on day 1,4 and 7 and measured twice per week for 8 days; assay type: cell-based; details: in vivo, other, 192 h, dose 50 µg, time 8 day

Structure (SMILES) | fold change (FC) [2] | fold change (FC) ([3]; filed as agonist) | other results
Cc1ccc2c(=O)c3cccc(CC(=O)O)c3oc2c1C |  |  | Activity (CT26 [1]): Active
COc1cc2cc(-c3cc(C(=O)O)[nH]n3)sc2cc1OC | 1 | 1 | 
COc1cc2cc(C(=O)CCC(=O)N(O)C(C)C)sc2cc1OC | 1 | 1.2 | 
COc1cc2sc(C(=O)CC(C)(C)C(=O)O)cc2c(F)c1OCCCOc1c(OC)cc2sc(C(=O)CC(C)(C)C(=O)O)cc2c1F |  |  | IC50 [6]: 0.002 µM; EC50 [7]: 0.008 µM
COc1cc2cc(C(=O)SCC(=O)O)sc2cc1OC | 1 | 1 | 
COc1cc2cc(C(=O)CCC(=O)ONC(C)C)sc2cc1OC | 25.4 | 19.3 | inhibition (B16-F10 [8]): Active; EC50 [4]: 2.55 µM; Activity [9]: Active; Activity [10]: Active; Activity [11]: Active; Activity [12]: Active; Activity [13]: Dde; Activity (Homo sapiens): Active; Activity (Mus musculus): Active; Activity [14]: Active; Activity [15]: Active; Activity [16]: Non-Toxic; Activity [17]: Non-Toxic; Activity (CT26 [18]): Active; Activity [19]: Non-Toxic; Activity (CT26 [20]): Active; inhibition (B16-F10 [21]): Active; Activity [22]: Non-Toxic; inhibition (4T1): Active; Activity [23]: Non-Toxic
COc1cc2cc(C(=O)CCC(=O)N(O)Cc3ccccc3)sc2cc1OC | 2.3 | 1.1 | 
COc1cc2cc(C(=O)CCC(=O)ONC3CCCCC3)sc2cc1OC | 25 | 1.1 | 
COc1cc2cc(C(=O)NCC(=O)O)sc2cc1OC | 1.2 |  | 
COc1cc2cc(C(CCC(=O)O)OC)sc2cc1OC (centres undefined) | 1 | 0.5 | 
COc1cc2cc(C(=O)CCC(=O)ONCc3ccccc3)sc2cc1OC | 22.4 | 25.3 | EC50 [4]: 6.14 µM
COc1cc2cc(C(=O)CCC(=O)ONC(C)(C)C)sc2cc1OC | 21.2 |  | fold change (FC) [3]: < 1
Nc1ncnc2c1ncn2[C@@H]1O[C@@H]2CO[P@@](=O)(S)O[C@@H]3[C@H](O)[C@@H](CO[P@@](=O)(S)O[C@H]2[C@H]1O)O[C@H]3n1cnc2c(N)ncnc21 |  |  | Activity [24]: Non-Toxic; Activity [25]: Non-Toxic
COc1cc2cc(C(=O)CCC(=O)N(C)OC)sc2cc1OC | 3.2 | 0.5 | 
COc1cc2cc(C(=O)CCC(=O)NOCc3ccccc3)sc2cc1OC | 16.5 | 0.8 | 
COc1cc2cc(C3=NOC(C(=O)O)C3)sc2cc1OC (centres undefined) | 3.8 | 0.9 | 

Further lines, with some results ahead:

fold change (FC) [2] | fold change (FC) ([3]; filed as agonist) | Structure (SMILES) | other results
23.5 | 13.6 | COc1cc2cc(C(=O)CCC(=O)O)sc2cc1OC | EC50 [4]: 8.14 µM; EC50 [5]: 1.72 µM
1 |  | COc1cc2cc(CCCC(=O)O)sc2cc1OC | fold change (FC) [3]: < 1
1.1 | 0.7 | COc1cc2c(cc1OC)S(=O)(=O)C(C(=O)CCC(=O)O)=C2 | 
1.1 | 0.8 | COc1cc2cc(C(=O)CCCC(=O)O)sc2cc1OC | 
0.9 | 1.1 | COc1cc2nc(C(=O)CCC(=O)O)[nH]c2cc1OC | 
0.9 | 1 | COc1cc2cc(C(=O)CCC(=O)O)oc2cc1OC | 
0.9 |  | COc1cc2cc(C(O)CCC(=O)O)sc2cc1OC (centres undefined) | fold change (FC) [3]: < 1
1 | 1.1 | COc1cc2cc(NC(=O)CC(=O)O)sc2cc1OC | 
15 | 0.7 | COc1cc2cc(C(=O)CCC(=O)N(C)O)sc2cc1OC | 
1.2 |  | COc1cc2cc(C(=O)NCCC(=O)O)sc2cc1OC | 
24.2 | 2.7 | CONC(=O)CCC(=O)c1cc2cc(OC)c(OC)cc2s1 | 
